Values after ≈ are worked out from the molar mass of the structure shown. Read-outs that look alike come from different tables or passages of the source.
Experiments:
53 CRE and CPE strains = test: MICrange, MIC50, MIC80, MIC90 for 53 bacterial isolates (Example 5, Table 5); assay type: cell-based; conditions: 53 bacterial isolates
P. aeruginosa = test: MIC, broth microdilution, CDC/FDA Antibiotic Resistance Isolate Bank (Example 7, Tables 10, 15); assay type: cell-based; conditions: for MIC: Pseudomonas aeruginosa, read-out: MIC
[1] = 26 metallo-carbapenemase-producing P. aeruginosa strains, β-lactamase inhibitor µg/mL in parentheses
[2] = 96 strains of P. aeruginosa, β-lactamase inhibitor µg/mL in parentheses

C[C@H]1COc2c(N3CCN(C)CC3)c(F)cc3c(=O)c(C(=O)O)cn1c23 [Levofloxacin, levofloxacin]
MIC50 (53 CRE and CPE strains; read-out: MIC50): 16 µg/mL (≈ 44.3 µM) | MIC80 (53 CRE and CPE strains; read-out: MIC80): 64 µg/mL (≈ 177 µM) | MIC90 (53 CRE and CPE strains; read-out: MIC90): 64 µg/mL (≈ 177 µM) | MIC against 26 metallo-carbapenemase-producing strains MIC50 (P. aeruginosa; [1]): 32 µg(mL) | MIC against 26 metallo-carbapenemase-producing strains MIC90 (P. aeruginosa; [1]): >64 µg(mL) | MIC against 96 strains of P. aeruginosa MIC50 (P. aeruginosa; [2]): 32 µg(mL) | MIC against 96 strains of P. aeruginosa MIC90 (P. aeruginosa; [2]): 64 µg(mL) | MIC (P. aeruginosa; P. aeruginosa KUB No. 579, AR Bank # 447): 0.5 µg/mL (≈ 1.38 µM) | MIC (P. aeruginosa; P. aeruginosa KUB No. 5083, AR Bank # 250): 64 µg/mL (≈ 177 µM) | MIC (P. aeruginosa; P. aeruginosa KUB No. 5551, AR Bank # 54): 64 µg/mL (≈ 177 µM) | MIC (P. aeruginosa; P. aeruginosa KUB No. 5561, AR Bank # 64): 32 µg/mL (≈ 88.6 µM) | MIC (P. aeruginosa; P. aeruginosa KUB No. 5587, AR Bank # 90): 32 µg/mL (≈ 88.6 µM) | MIC (P. aeruginosa; P. aeruginosa KUB No. 5589, AR Bank # 92): 64 µg/mL (≈ 177 µM) | MIC (P. aeruginosa; P. aeruginosa KUB No. 5591, AR Bank # 94): 64 µg/mL (≈ 177 µM) | MIC (P. aeruginosa; P. aeruginosa KUB No. 5592, AR Bank # 95): 32 µg/mL (≈ 88.6 µM) | MIC (P. aeruginosa; P. aeruginosa KUB No. 5597, AR Bank # 100): > 64 µg/mL | MIC (P. aeruginosa; P. aeruginosa KUB No. 5600, AR Bank # 103): 64 µg/mL (≈ 177 µM) | MIC (P. aeruginosa; P. aeruginosa KUB No. 5602, AR Bank # 105): > 64 µg/mL | MIC (P. aeruginosa; P. aeruginosa KUB No. 5605, AR Bank # 108): 64 µg/mL (≈ 177 µM) | MIC (P. aeruginosa; P. aeruginosa KUB No. 5607, AR Bank # 110): 32 µg/mL (≈ 88.6 µM) | MIC (P. aeruginosa; P. aeruginosa KUB No. 5608, AR Bank # 111): 32 µg/mL (≈ 88.6 µM) | MIC (P. aeruginosa; P. aeruginosa KUB No. 5662, AR Bank # 229): 64 µg/mL (≈ 177 µM) | MIC (P. aeruginosa; P. aeruginosa KUB No. 5663, AR Bank # 230): 32 µg/mL (≈ 88.6 µM) | MIC (P. aeruginosa; P. aeruginosa KUB No. 5664, AR Bank # 231): 64 µg/mL (≈ 177 µM) | MIC (P. aeruginosa; P. aeruginosa KUB No. 5665, AR Bank # 232): 8 µg/mL (≈ 22.1 µM) | MIC (P. aeruginosa; P. aeruginosa KUB No. 5666, AR Bank # 23): 2 µg/mL (≈ 5.53 µM) | MIC (P. aeruginosa; P. aeruginosa KUB No. 5667, AR Bank # 234): 8 µg/mL (≈ 22.1 µM) | MIC (P. aeruginosa; P. aeruginosa KUB No. 5668, AR Bank # 235): 64 µg/mL (≈ 177 µM) | MIC (P. aeruginosa; P. aeruginosa KUB No. 5669, AR Bank # 236): 16 µg/mL (≈ 44.3 µM) | MIC (P. aeruginosa; P. aeruginosa KUB No. 5670, AR Bank # 237): 0.5 µg/mL (≈ 1.38 µM) | MIC (P. aeruginosa; P. aeruginosa KUB No. 5671, AR Bank # 238): 0.5 µg/mL (≈ 1.38 µM) | MIC (P. aeruginosa; P. aeruginosa KUB No. 5672, AR Bank # 239): 64 µg/mL (≈ 177 µM) | MIC (P. aeruginosa; P. aeruginosa KUB No. 5673, AR Bank # 240): > 64 µg/mL | MIC (P. aeruginosa; P. aeruginosa KUB No. 5674, AR Bank # 241): 32 µg/mL (≈ 88.6 µM) | MIC (P. aeruginosa; P. aeruginosa KUB No. 5675, AR Bank # 242): 16 µg/mL (≈ 44.3 µM) | MIC (P. aeruginosa; P. aeruginosa KUB No. 5676, AR Bank # 243): 16 µg/mL (≈ 44.3 µM) | MIC (P. aeruginosa; P. aeruginosa KUB No. 5677, AR Bank # 244): 64 µg/mL (≈ 177 µM) | MIC (P. aeruginosa; P. aeruginosa KUB No. 5678, AR Bank # 245): > 64 µg/mL | MIC (P. aeruginosa; P. aeruginosa KUB No. 5679, AR Bank # 246): 32 µg/mL (≈ 88.6 µM) | MIC (P. aeruginosa; P. aeruginosa KUB No. 5680, AR Bank # 247): 1 µg/mL (≈ 2.77 µM) | MIC (P. aeruginosa; P. aeruginosa KUB No. 5681, AR Bank # 248): 16 µg/mL (≈ 44.3 µM) | MIC (P. aeruginosa; P. aeruginosa KUB No. 5682, AR Bank # 249): 64 µg/mL (≈ 177 µM) | MIC (P. aeruginosa; P. aeruginosa KUB No. 5684, AR Bank # 251): 8 µg/mL (≈ 22.1 µM) | MIC (P. aeruginosa; P. aeruginosa KUB No. 5685, AR Bank # 252): 16 µg/mL (≈ 44.3 µM) | MIC (P. aeruginosa; P. aeruginosa KUB No. 5686, AR Bank # 253): 1 µg/mL (≈ 2.77 µM) | MIC (P. aeruginosa; P. aeruginosa KUB No. 5687, AR Bank # 254): 16 µg/mL (≈ 44.3 µM) | MIC (P. aeruginosa; P. aeruginosa KUB No. 5688, AR Bank # 255): 32 µg/mL (≈ 88.6 µM) | MIC (P. aeruginosa; P. aeruginosa KUB No. 5689, AR Bank # 256): 0.5 µg/mL (≈ 1.38 µM) | MIC (P. aeruginosa; P. aeruginosa KUB No. 5690, AR Bank # 257): 64 µg/mL (≈ 177 µM) | MIC (P. aeruginosa; P. aeruginosa KUB No. 5691, AR Bank # 258): 0.5 µg/mL (≈ 1.38 µM) | MIC (P. aeruginosa; P. aeruginosa KUB No. 5692, AR Bank # 259): 0.5 µg/mL (≈ 1.38 µM) | MIC (P. aeruginosa; P. aeruginosa KUB No. 5693, AR Bank # 260): 32 µg/mL (≈ 88.6 µM) | MIC (P. aeruginosa; P. aeruginosa KUB No. 5694, AR Bank # 261): 4 µg/mL (≈ 11.1 µM) | MIC (P. aeruginosa; P. aeruginosa KUB No. 5695, AR Bank # 262): 2 µg/mL (≈ 5.53 µM) | MIC (P. aeruginosa; P. aeruginosa KUB No. 5696, AR Bank # 263): 2 µg/mL (≈ 5.53 µM) | MIC (P. aeruginosa; P. aeruginosa KUB No. 5697, AR Bank # 264): 32 µg/mL (≈ 88.6 µM) | MIC (P. aeruginosa; P. aeruginosa KUB No. 5698, AR Bank # 265): 64 µg/mL (≈ 177 µM) | MIC (P. aeruginosa; P. aeruginosa KUB No. 5699, AR Bank # 266): 32 µg/mL (≈ 88.6 µM) | MIC (P. aeruginosa; P. aeruginosa KUB No. 5700, AR Bank # 267): 32 µg/mL (≈ 88.6 µM) | MIC (P. aeruginosa; P. aeruginosa KUB No. 5701, AR Bank # 268): 8 µg/mL (≈ 22.1 µM) | MIC (P. aeruginosa; P. aeruginosa KUB No. 5702, AR Bank # 269): 32 µg/mL (≈ 88.6 µM) | MIC (P. aeruginosa; P. aeruginosa KUB No. 5703, AR Bank # 270): 32 µg/mL (≈ 88.6 µM) | MIC (P. aeruginosa; P. aeruginosa KUB No. 5704, AR Bank # 271): 32 µg/mL (≈ 88.6 µM) | MIC (P. aeruginosa; P. aeruginosa KUB No. 5705, AR Bank # 272): 8 µg/mL (≈ 22.1 µM) | MIC (P. aeruginosa; P. aeruginosa KUB No. 5747, AR Bank # 351): 8 µg/mL (≈ 22.1 µM) | MIC (P. aeruginosa; P. aeruginosa KUB No. 5748, AR Bank # 352): 32 µg/mL (≈ 88.6 µM) | MIC (P. aeruginosa; P. aeruginosa KUB No. 5749, AR Bank # 353): 32 µg/mL (≈ 88.6 µM) | MIC (P. aeruginosa; P. aeruginosa KUB No. 5750, AR Bank # 354): 8 µg/mL (≈ 22.1 µM)
